Converted amounts (≈) assume the structure as drawn.
What was measured:
Assay type in all cases: functional
Details in all cases: 72 h
Acyrthosiphon pisum [1] = assay: Insecticidal activity against Acyrthosiphon pisum (pea aphid) assessed as mortality at 5 mg/ml after 3 days by no-choice assay
Acyrthosiphon pisum [2] = assay: Insecticidal activity against Acyrthosiphon pisum (pea aphid) after 3 days by no-choice assay
Acyrthosiphon pisum [3] = assay: Insecticidal activity against Acyrthosiphon pisum (pea aphid) assessed as mortality at 1 mg/ml after 3 days by no-choice assay

Row | SMILES | mortality at 5000 µg/mL (Acyrthosiphon pisum [1]) [%] | LC50 (Acyrthosiphon pisum [2]) [µg/mL] | mortality at 1000 µg/mL (Acyrthosiphon pisum [3]) [%]
1 | C[C@@H]1CC[C@@]2(OC1)O[C@H]1[C@@H](O)[C@H]3[C@@H]4CC[C@H]5C[C@@H](O[C@@H]6O[C@H](CO)[C@H](O[C@@H]7O[C@H](CO)C(O)[C@H](O[C@@H]8OC[C@@H](O)[C@H](O)[C@H]8O)[C@H]7O[C@@H]7O[C@H](CO)[C@H](O)[C@H](O[C@@H]8O[C@H](CO)[C@@H](O)[C@H](O)[C@H]8O)[C@H]7O)[C@H](O)[C@H]6O)[C@H](O)C[C@]5(C)[C@H]4CC[C@]3(C)[C@H]1[C@@H]2C (some centres undefined) [DIGITONIN] | 14 | 0.45 (≈ 0.366 µM) | 76
2 | C[C@@H]1CC[C@@]2(OC1)O[C@H]1C[C@H]3[C@@H]4CC=C5C[C@@H](O)CC[C@]5(C)[C@H]4CC[C@]3(C)[C@H]1[C@@H]2C [DISOGENIN] | 18 | – | –
